Reference: PubChem BioAssay (NCI)
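Following 48 hours of exposure in 96-well plates, responses at five concentrations were used to interpolate endpoints linearly. The concentration for 50% growth inhibition is given as GI50. At the TGI there is no net growth.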

Tests used:
Assay in all cases: growth of human tumour cells (NCI), 48 h
[1] = tested on: HCT-116 colon
[2] = tested on: DU-145 prostate
[3] = tested on: SF-539 CNS
[4] = tested on: HCT-15 colon
[5] = tested on: T-47D breast
[6] = tested on: HS 578T breast
[7] = tested on: IGROV1 ovarian
[8] = tested on: PC-3 prostate
[9] = tested on: MDA-MB-435
[10] = tested on: SK-OV-3 ovarian
[11] = tested on: M14 melanoma
[12] = tested on: KM12 colon
[13] = tested on: U251 CNS
[14] = tested on: NCI-H522 lung
[15] = tested on: SW-620 colon
[16] = tested on: BT-549 breast
[17] = tested on: OVCAR-5 ovarian
[18] = tested on: HCC-2998 colon
[19] = tested on: NCI-H460 lung
[20] = tested on: A549 NSCLC
[21] = tested on: OVCAR-8 ovarian
[22] = tested on: ACHN renal
[23] = tested on: SN12C renal
[24] = tested on: NCI-H23 lung
[25] = tested on: SNB-19 CNS
[26] = tested on: SK-MEL-2 melanoma
[27] = tested on: TK-10 renal
[28] = tested on: RXF 393 renal
[29] = tested on: NCI-H226 lung
[30] = tested on: HOP-92 NSCLC
[31] = tested on: HL-60(TB) leukemia
[32] = tested on: UO-31 renal
[33] = tested on: SNB-75 CNS
[34] = tested on: A498 renal
[35] = tested on: SF-295 CNS
[36] = tested on: OVCAR-4 ovarian
[37] = tested on: COLO 205 colon
[38] = tested on: HOP-62 NSCLC
[39] = tested on: NCI/ADR-RES ovarian
[40] = tested on: EKVX NSCLC
[41] = tested on: UACC-62 melanoma
[42] = tested on: CAKI-1 renal
[43] = tested on: SK-MEL-5 melanoma
[44] = tested on: CCRF-CEM leukemia
[45] = tested on: SF-268 CNS
[46] = tested on: MDA-MB-231 breast
[47] = tested on: MALME-3M melanoma
[48] = tested on: K-562 leukemia
[49] = tested on: MCF7 breast
[50] = tested on: LOX IMVI melanoma
[51] = tested on: OVCAR-3 ovarian
[52] = tested on: UACC-257 melanoma
[53] = tested on: 786-0 renal
[54] = tested on: RPMI-8226 leukemia

Molecule `Clc1ccc(Cc2nc3cc4ccccc4cc3[nH]2)cc1` has a GI50 [1] of 5.06 µM, a TGI [1] of 20.6 µM and a GI50 [2] of 17.1 µM. The TGI [2] was over 100 µM, the GI50 [3] was 3.08 µM and the TGI [3] was 81.1 µM. The GI50 [4] was 5.33 µM, the TGI [4] was 26.4 µM and the GI50 [5] was 23.1 µM. For the same molecule, the TGI [5] was 88.6 µM, the GI50 [6] was 12.4 µM and the TGI [6] was 67.7 µM. The GI50 [7] was 26 µM, the TGI [7] was over 100 µM and the GI50 [8] was 7.12 µM. For the same molecule, the TGI [8] was over 100 µM, the GI50 [9] was 27.8 µM and the TGI [9] was over 100 µM. The GI50 [10] was 14.7 µM, the TGI [10] was 83.3 µM and the GI50 [11] was 53.1 µM. The TGI [11] was over 100 µM, the GI50 [12] was 9.64 µM and the TGI [12] was over 100 µM. For the same molecule, the GI50 [13] was 10.5 µM, the TGI [13] was 29.6 µM and the GI50 [14] was 82 µM. For the same molecule, the TGI [14] was over 100 µM, the GI50 [15] was 6.55 µM and the TGI [15] was over 100 µM. It also gave a GI50 [16] of 14.1 µM, a TGI [16] of over 100 µM and a GI50 [17] of 26.3 µM. For the same molecule, the TGI [17] was over 100 µM, the GI50 [18] was 15.8 µM and the TGI [18] was 89.5 µM. It also gave a GI50 [19] of 2.22 µM, a TGI [19] of over 100 µM and a GI50 [20] of 6.83 µM. For the same molecule, the TGI [20] was over 100 µM, the GI50 [21] was 7.92 µM and the TGI [21] was 37.1 µM. For the same molecule, the GI50 [22] was 18.8 µM, the TGI [22] was 57.7 µM and the GI50 [23] was 94.8 µM. For the same molecule, the TGI [23] was over 100 µM, the GI50 [24] was 28.8 µM and the TGI [24] was over 100 µM. It also gave a GI50 [25] of 20 µM, a TGI [25] of over 100 µM and a GI50 [26] of over 100 µM. For the same molecule, the TGI [26] was over 100 µM, the GI50 [27] was 10.6 µM and the TGI [27] was 38.4 µM. It also gave a GI50 [28] of over 100 µM, a TGI [28] of over 100 µM and a GI50 [29] of 30.1 µM. For the same molecule, the TGI [29] was over 100 µM, the GI50 [30] was 19.5 µM and the TGI [30] was over 100 µM. For the same molecule, the GI50 [31] was over 100 µM, the TGI [31] was over 100 µM and the GI50 [32] was 54.1 µM. The TGI [32] was over 100 µM, the GI50 [33] was over 100 µM and the TGI [33] was over 100 µM. It also gave a GI50 [34] of 21.7 µM, a TGI [34] of over 100 µM and a GI50 [35] of 3.08 µM. The TGI [35] was 30 µM, the GI50 [36] was 22.7 µM and the TGI [36] was over 100 µM. The GI50 [37] was 8.64 µM, the TGI [37] was over 100 µM and the GI50 [38] was 10.2 µM. For the same molecule, the TGI [38] was 30.8 µM, the GI50 [39] was 22.9 µM and the TGI [39] was over 100 µM. For the same molecule, the GI50 [40] was 26.9 µM, the TGI [40] was over 100 µM and the GI50 [41] was 73.5 µM. The TGI [41] was over 100 µM, the GI50 [42] was 6.55 µM and the TGI [42] was 69.9 µM. It also gave a GI50 [43] of 3.17 µM, a TGI [43] of over 100 µM and a GI50 [44] of 2.21 µM. It also gave a TGI [44] of over 100 µM, a GI50 [45] of 10.9 µM and a TGI [45] of 75.7 µM. It also gave a GI50 [46] of 25.4 µM, a TGI [46] of 96.1 µM and a GI50 [47] of 26.8 µM. It also gave a TGI [47] of over 100 µM, a GI50 [48] of 50.8 µM and a TGI [48] of over 100 µM. For the same molecule, the GI50 [49] was 17.1 µM, the TGI [49] was over 100 µM and the GI50 [50] was 13.2 µM. It also gave a TGI [50] of over 100 µM, a GI50 [51] of 14.4 µM and a TGI [51] of over 100 µM. It also gave a GI50 [52] of over 100 µM, a TGI [52] of over 100 µM and a GI50 [53] of 8.99 µM. The TGI [53] was 43.2 µM, the GI50 [54] was 9.77 µM and the TGI [54] was over 100 µM.
